Source: patent publication US20100009956A1, “NOVEL SUBSTITUTED PYRIMIDINES AS CYSTEINE PROTEASE INHIBITORS” (Glaxo Group Limited , a corporation, priority 2006, published 2010)
Structures can show the parent of a compound that is named as a salt. Where two headings read alike, the source gives them in different places.

Assays:
Type in all cases: biochemical
[1] = target: Falcipain-3 (Plasmodium falciparum, UniProt Q8IIL0); assay: Falcipain-3 enzymatic assay (assay 1)
Procedure: (§1) Assay 1) Determination of Falcipain-2, Falcipain-3, Vivapain-2, Cathepsin K Cathepsin S, Cathepsin L, and Cathepsin B Proteolytic Catalytic Activity
(§2) Assays for Falcipain-2, Falcipain-3, and Vivapain-2 are carried out with parasitic recombinant enzymes. Cathepsins K, S, L, and B are carried out with human recombinant enzymes. Standard assay conditions for the determination of kinetic constants used a fluorogenic peptide substrate, typically H-D-VLR-AFC (Falcipain-2, Falcipain-3, Vivapain-2), Z-FR-AFC (Cathepsin K, L, B), or KQKLR-AMC (Cathepsin S) and are determined in 100 mM sodium acetate, pH 5.5, containing 10 mM DTT and 0.5 mM CHAPS (Falcipain-2, Falcipain-3, Vivapain-2), and 100 mM sodium acetate, pH 5.5, containing 5 mM L-cysteine, 1 mM CHAPS and 5 mM EDTA (Cathepsin K, L, B), or 50 mM MES, pH 6.5, containing 0.5 mM CHAPS, 10 mM L-CYS, 5 mM EDTA (Cathepsin S). Stock substrate solutions are prepared at 20 mM in DMSO. The activity assays contained 30 uM substrate (Falcipain-2, Falcipain-3, Vivapain-2), 20 uM substrate (Cathepsin K), 25 uM substrate (Cathepsin B), 5 uM substrate (Cathepsin L), and 30 uM substrate (Cathepsin S). All assays contained 1% DMSO. […] All assays are conducted at ambient temperature as end point assays being quenched after 60 minutes with the exception of Cathepsin S at 90 minutes, with 16.6 uM E-64 in 1% DMSO. Product formation (AFC or AMC) is determined from fluorescence (excitation at 405 nm; emission at 530 nm, AFC, or excitation at 360 nm; emission at 460 nm, AMC) monitored with a LJL Aquest (Molecular Devices) fluorescent plate reader. In the case of kinetic reads (used in mechanism of action studies), the reaction is not quenched but is read in the plate reader every 3 minutes for approximately 90 minutes. In addition, the mechanism of action studies for Falcipain-2 utilize Z-LR-AMC as the substrate. Product formation is determined from the fluorescence of AMC, measured with a LJL Acquest (Molecular Devices) fluorescent plate reader (excitation at 360 nm; emission at 460 nm).
(§3) Potential inhibitors are evaluated using the quenched read (endpoint) method. Assays are carried out in the presence of variable concentrations of test compound. Reactions are initiated by addition of enzyme and substrate to wells containing inhibitor stamped in 100% DMSO. For endpoint assays, the reaction is quenched with the addition of E64. Dose response data is fit to an IC50 curve with preset fitting tools according to equation 1:
(§4) y=a+(b−a)/(1+(10^x/10^c)^d) (1)
(§5) where y is the response at a particular inhibitor concentration x, a is the minimum response value, b is the maximum response value, c is the IC50, and d is the slope of the IC50 curve. Assuming the compound is a competitive inhibitor, the apparent KI can be calculated from IC50, as shown in equation 2: […]

[2] = target: Falcipain-2 (Plasmodium falciparum, UniProt Q8I6U4); assay: Falcipain-2 enzymatic assay (assay 1)
Procedure: as §1, §2, §3, §4, §5

[3] = target: Cathepsin S (Homo sapiens, UniProt P25774); assay: Cathepsin S enzymatic assay (assay 1); settings: human recombinant enzyme, KQKLR-AMC substrate, pH 6.5
Procedure: as §1, §2, §3, §4, §5

[4] = target: T1, Cathepsin K (Homo sapiens, UniProt P43235); assay: Cathepsin K enzymatic assay (assay 1); settings: human recombinant enzyme, Z-FR-AFC substrate, pH 5.5
T1 sequence (P43235 115-329): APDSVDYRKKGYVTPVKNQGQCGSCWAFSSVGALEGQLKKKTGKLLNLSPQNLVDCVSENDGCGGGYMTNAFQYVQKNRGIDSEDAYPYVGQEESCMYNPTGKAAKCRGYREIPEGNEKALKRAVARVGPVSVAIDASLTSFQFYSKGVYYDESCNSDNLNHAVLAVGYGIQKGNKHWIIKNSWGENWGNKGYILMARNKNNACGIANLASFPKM
Procedure: as §1, §2, §3, §4, §5

[5] = parasitic recombinant enzyme, H-D-VLR-AFC substrate, pH 5.5, endpoint read, read-out: Falcipain-3 IC50

Chain of Falcipain-3 (Q8IIL0 243-492): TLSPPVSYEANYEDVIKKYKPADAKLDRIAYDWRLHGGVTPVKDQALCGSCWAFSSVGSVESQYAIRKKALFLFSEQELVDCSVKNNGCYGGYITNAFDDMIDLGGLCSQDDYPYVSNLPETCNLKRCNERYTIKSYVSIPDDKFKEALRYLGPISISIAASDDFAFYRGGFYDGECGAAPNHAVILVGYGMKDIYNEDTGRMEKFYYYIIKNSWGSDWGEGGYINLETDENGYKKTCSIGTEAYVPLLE
Chain of Falcipain-2 (Q8I6U4 244-484): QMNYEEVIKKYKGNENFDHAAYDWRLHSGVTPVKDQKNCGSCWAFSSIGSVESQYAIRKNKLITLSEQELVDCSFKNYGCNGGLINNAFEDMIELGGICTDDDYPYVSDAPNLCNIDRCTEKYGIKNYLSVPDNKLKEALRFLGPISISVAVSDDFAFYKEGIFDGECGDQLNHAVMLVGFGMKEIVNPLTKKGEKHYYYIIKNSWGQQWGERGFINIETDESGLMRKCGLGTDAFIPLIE
Chain of Cathepsin S (P25774 115-331): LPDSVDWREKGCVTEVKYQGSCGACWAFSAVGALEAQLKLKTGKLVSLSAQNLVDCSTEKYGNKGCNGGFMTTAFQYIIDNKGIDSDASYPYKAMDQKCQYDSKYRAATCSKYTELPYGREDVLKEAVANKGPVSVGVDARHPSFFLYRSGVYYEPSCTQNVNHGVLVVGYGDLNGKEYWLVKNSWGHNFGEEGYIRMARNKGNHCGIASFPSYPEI

Row | Compound | IC50 [1] [nM] | IC50 [2] [nM] | IC50 [3] [nM] | IC50 [1, 5] [nM] | IC50 [4] [nM]
1 | CN(C)Cc1ccc(C(=O)NN(c2nc(C#N)ncc2Cl)C2CCCC2)cc1 [Example 54, N′-(5-chloro-2-cyano-4-pyrimidinyl)-N′-cyclopentyl-4-[(dimethylamino)methyl]benzohydrazide trifluoroacetate] | 2.5 to 15 | < 1 | < 200 |  | 
2 | CN(Cc1ccc(C(=O)NN(c2nc(C#N)ncc2Cl)C2CCCC2)cc1)C1CCC2(CC1)OCC(C)(C)CO2 [Example 65, N′-(5-chloro-2-cyano-4-pyrimidinyl)-N′-cyclopentyl-4-{[(3,3-dimethyl-1,5-dioxaspiro[5.5]undec-9-yl)(methyl)amino]methyl}benzohydrazide trifluoroacetate] | 2.5 to 15 | 1 to 2.5 | < 200 |  | 
3 | CN(CCc1ccccc1)Cc1ccc(C(=O)NN(c2nc(C#N)ncc2Cl)C2CCCC2)cc1 [Example 62, N′-(5-chloro-2-cyano-4-pyrimidinyl)-N′-cyclopentyl-4-{[methyl(2-phenylethyl)amino]methyl}benzohydrazide trifluoroacetate] | 2.5 to 15 | < 1 | < 200 |  | 
4 | CCN(CC)Cc1ccc(C(=O)NN(c2nc(C#N)ncc2Cl)C2CCCC2)cc1 [Example 66, N′-(5-chloro-2-cyano-4-pyrimidinyl)-N′-cyclopentyl-4-[(diethylamino)methyl]benzohydrazide trifluoroacetate] | 2.5 to 15 | < 1 | < 200 |  | 
5 | CC(C)N(Cc1ccc(C(=O)NN(c2nc(C#N)ncc2Cl)C2CCCC2)cc1)C(C)C [Example 72, 4-{[bis(1-methylethyl)amino]methyl}-N′-(5-chloro-2-cyano-4-pyrimidinyl)-N′-cyclopentylbenzohydrazide trifluoroacetate] | 2.5 to 15 | < 1 | < 200 |  | 
6 | N#Cc1ncc(Cl)c(N(NC(=O)c2ccc(CN3CCC(O)CC3)cc2)C2CCCC2)n1 [Example 70, N′-(5-chloro-2-cyano-4-pyrimidinyl)-N′-cyclopentyl-4-[(4-hydroxy-1-piperidinyl)methyl]benzohydrazide trifluoroacetate] | 2.5 to 15 | < 1 | < 200 |  | 
7 | CCCCCCN(C)Cc1ccc(C(=O)NN(c2nc(C#N)ncc2Cl)C2CCCC2)cc1 [Example 56, N′-(5-chloro-2-cyano-4-pyrimidinyl)-N′-cyclopentyl-4-{([hexyl(methyl)amino]methyl}benzohydrazide trifluoroacetate] | 2.5 to 15 | < 1 | < 200 |  | 
8 | CC(=O)N1CCC(N(NC(=O)c2ccc(CN3CCC(N4CCN(C)CC4)CC3)cc2)c2nc(C#N)ncc2Br)CC1 [Example 38, N′-(1-acetyl-4-piperidinyl)-N′-(5-bromo-2-cyano-4-pyrimidinyl)-4-{[4-(4-methyl-1-piperazinyl)-1-piperidinyl]methyl}benzohydrazide trifluoroacetate] |  | < 1 | < 200 | 2.5 to 15 | 
9 | CCCN(C)Cc1ccc(C(=O)NN(c2nc(C#N)ncc2Cl)C2CCCC2)cc1 [Example 55, N′-(5-chloro-2-cyano-4-pyrimidinyl)-N′-cyclopentyl-4-{[methyl(propyl)amino]methyl}benzohydrazide trifluoroacetate] | 2.5 to 15 | < 1 | < 200 |  | 
10 | CN(CCC(O)c1ccccc1)Cc1ccc(C(=O)NN(c2nc(C#N)ncc2Cl)C2CCCC2)cc1 (stereo not drawn) [Example 59, N′-(5-chloro-2-cyano-4-pyrimidinyl)-N′-cyclopentyl-4-{[(3-hydroxy-3-phenylpropyl)(methyl)amino]methyl}benzohydrazide trifluoroacetate] | 1 to 2.5 | < 1 | < 200 |  | 
11 | CN(CC(=O)N(C)C)Cc1ccc(C(=O)NN(c2nc(C#N)ncc2Cl)C2CCCC2)cc1 [Example 60, N^2-[(4-{[2-(5-chloro-2-cyano-4-pyrimidinyl)-2-cyclopentylhydrazino]carbonyl}phenyl)methyl]-N^1,N^1,N^2-trimethylglycinamide trifluoroacetate] | 2.5 to 15 | < 1 | < 200 |  | 
12 | CN(Cc1ccc(C(=O)NN(c2nc(C#N)ncc2Cl)C2CCCC2)cc1)C1CCCCC1 [Example 53, N′-(5-chloro-2-cyano-4-pyrimidinyl)-4-{[cyclohexyl(methyl)amino]methyl}-N′-cyclopentylbenzohydrazide trifluoroacetate] | 2.5 to 15 | < 1 | < 200 |  | 
13 | CN(CCCc1ccccc1)Cc1ccc(C(=O)NN(c2nc(C#N)ncc2Cl)C2CCCC2)cc1 [Example 64, N′-(5-chloro-2-cyano-4-pyrimidinyl)-N′-cyclopentyl-4-{[methyl(3-phenylpropyl)amino]methyl}benzohydrazide trifluoroacetate] | 2.5 to 15 | < 1 | < 200 |  | 
14 | CCCCN(C)Cc1ccc(C(=O)NN(c2nc(C#N)ncc2Cl)C2CCCC2)cc1 [Example 57, 4-{[butyl(methyl)amino]methyl}-N′-(5-chloro-2-cyano-4-pyrimidinyl)-N′-cyclopentylbenzohydrazide trifluoroacetate] | 2.5 to 15 | < 1 | < 200 |  | 
15 | CN(Cc1ccc(C(=O)NN(c2nc(C#N)ncc2Cl)C2CCCC2)cc1)C(C)(C)Cc1ccccc1 [Example 71, N′-(5-chloro-2-cyano-4-pyrimidinyl)-N′-cyclopentyl-4-{[(1,1-dimethyl-2-phenylethyl)(methyl)amino]methyl}benzohydrazide trifluoroacetate] | 2.5 to 15 | < 1 | < 200 |  | 
16 | CCN(Cc1ccc(C(=O)NN(c2nc(C#N)ncc2Cl)C2CCCC2)cc1)C1CCCCC1 [Example 69, N′-(5-chloro-2-cyano-4-pyrimidinyl)-4{[cyclohexyl(ethyl)amino]methyl}-N′-cyclopentylbenzohydrazide trifluoroacetate] | 2.5 to 15 | < 1 | < 200 |  | 
17 | CCN(CCCNC(=O)OC(C)(C)C)Cc1ccc(C(=O)NN(c2nc(C#N)ncc2Cl)C2CCCC2)cc1 [Example 81, 1,1-dimethylethyl{3-[[(4-{[2-(5-chloro-2-cyano-4-pyrimidinyl)-2-cyclopentylhydrazino]carbonyl}phenyl)methyl](ethyl)amino]propyl}carbamate] |  | < 1 | < 200 | 2.5 to 15 | 
18 | CN(CCC1OCCO1)Cc1ccc(C(=O)NN(c2nc(C#N)ncc2Cl)C2CCCC2)cc1 [Example 61, N′-(5-chloro-2-cyano-4-pyrimidinyl)-N′-cyclopentyl-4-{[[2-(1,3-dioxolan-2-yl)ethyl](methyl)amino]methyl}benzohydrazide trifluoroacetate] | 2.5 to 15 | < 1 | < 200 |  | 
19 | CN1CCN(c2ccc(C(=O)NN(c3nc(C#N)ncc3Cl)C3CCCC3)cc2)CC1 [Example 52, N′-(5-chloro-2-cyano-4-pyrimidinyl)-N′-cyclopentyl-4-(4-methyl-1-piperazinyl)benzohydrazide trifluoroacetate] | 2.5 to 15 | < 1 | < 200 |  | 
20 | CN1CCN(C2CCN(Cc3cccc(C(=O)NN(c4nc(C#N)ncc4Br)C4CCCC4)c3)CC2)CC1 [Example 11, N′-(5-bromo-2-cyano-4-pyrimidinyl)-N′-cyclopentyl-3-{[4-(4-methyl-1-piperazinyl)-1-piperidinyl]methyl}benzohydrazide trifluoroacetate] | 2.5 to 15 | < 1 |  |  | < 1.5
